Results published in ChEMBL document CHEMBL6083247, “Discovery of sulfone containing metallo-β-lactamase inhibitors with reduced bacterial cell efflux and histamine release issues” (Bioorg Med Chem Lett, 2024).

How the values were obtained:
[1] = target: Metallo-beta-lactamase type 2 (Bacteria, UniProt C7C422); assay: Inhibition of Metallo-beta-lactamase NDM-1 (unknown origin)
[2] = Inhibition of Metallo-beta-lactamase VIM-1 (unknown origin); design: species or system Bacteria
Escherichia coli = assay: Antibacterial activity against NDM-1 expressing Escherichia coli CLB30016 assessed as inhibition of bacterial growth in presence of IMI by absorbance based assay; assay type: functional
[3] = Inhibition of Metallo-beta-lactamase IMP-1 (unknown origin); design: species or system Bacteria
Klebsiella pneumoniae = assay: Antibacterial activity against VIM-1 expressing Klebsiella pneumoniae IHMA599644 assessed as inhibition of bacterial growth in presence of IMI by absorbance based assay; assay type: functional
Serratia marcescens = assay: Antibacterial activity against IMP-1 expressing Serratia marcescens CL5741 assessed as inhibition of bacterial growth in presence of IMI by absorbance based assay; assay type: functional
[4] = Efflux ratio of MITC95 for antibacterial activity against wildtype isogenic efflux/IMP-1 expressing Pseudomonas aeruginosa MB9798 assessed as inhibition of bacterial growth in presence of IMI to MITC95 for antibacterial activity against mutant isogenic efflux/IMP-1 expressing Pseudomonas aeruginosa MB9799 assessed as inhibition of bacterial growth in presence of IMI; assay type: functional
[5] = Inhibition of Metallo-beta-lactamase VIM-2 (unknown origin); design: species or system Bacteria
[6] = Toxicity in rat mast cells assessed as degranulation by measuring histamine release at >=300 microM; assay type: cell-based; conditions: mast cell
[7] = Toxicity in dog assessed as watery eyes at 1 mg/kg; assay type: organism-based, Canis lupus familiaris; conditions: in vivo
[8] = Toxicity in rat assessed as emesis at 1 mg/kg, iv; assay type: organism-based; conditions: in vivo
[9] = Toxicity in cardiovascular rat model assessed as increase in histamine release in plasma at 3 mg/kg,iv for 20 mins followed by 10 mg/kg, iv dose for next 20 mins and measured after 20 mins of iv dose with 30 mg/kg; assay type: organism-based; conditions: in vivo, 1 h, time 60 min
[10] = Cmax in rat at 30 mg/kg, iv; assay type: ADME, organism-based; conditions: in vivo
[11] = Toxicity in dog assessed as emesis at 1 mg/kg; assay type: organism-based, Canis lupus familiaris; conditions: in vivo
[12] = Toxicity in cardiovascular rat model assessed as increase in histamine release in plasma at 30 mg/kg, iv; assay type: organism-based; conditions: in vivo
[13] = Toxicity in dog assessed as anaphylaxis at 1 mg/kg; assay type: organism-based, Canis lupus familiaris; conditions: in vivo
Pseudomonas aeruginosa [14] = assay: Antibacterial activity against wildtype isogenic efflux/IMP-1 expressing Pseudomonas aeruginosa MB9798 assessed as inhibition of bacterial growth in presence of IMI by absorbance based assay; assay type: functional
[15] = Toxicity in rat assessed as watery eyes at 1 mg/kg, iv; assay type: organism-based; conditions: in vivo
Pseudomonas aeruginosa [16] = assay: Antibacterial activity against mutant isogenic efflux/IMP-1 expressing Pseudomonas aeruginosa MB9799 assessed as inhibition of bacterial growth in presence of IMI by absorbance based assay; assay type: functional
[17] = Toxicity in cardiovascular rat model assessed as decrease in blood pressure at 3 mg/kg,iv for 20 mins followed by 10 mg/kg, iv dose for next 20 mins and measured after 20 mins of iv dose with 30 mg/kg; assay type: organism-based; conditions: in vivo, 1 h, time 60 min
[18] = Toxicity in rat assessed as anaphylaxis at 1 mg/kg, iv; assay type: organism-based; conditions: in vivo
[19] = Toxicity in rat mast cells assessed as degranulation by measuring histamine release at >=33 microM; assay type: cell-based; conditions: mast cell
[20] = Toxicity in cardiovascular rat model assessed as increase in histamine release in plasma at 5 mg/kg, iv measured after >8 mins; assay type: organism-based; conditions: in vivo
[21] = Cmax in rat at 5 mg/kg, iv; assay type: ADME, organism-based; conditions: in vivo

Metallo-beta-lactamase type 2, sequence (C7C422 whole entry): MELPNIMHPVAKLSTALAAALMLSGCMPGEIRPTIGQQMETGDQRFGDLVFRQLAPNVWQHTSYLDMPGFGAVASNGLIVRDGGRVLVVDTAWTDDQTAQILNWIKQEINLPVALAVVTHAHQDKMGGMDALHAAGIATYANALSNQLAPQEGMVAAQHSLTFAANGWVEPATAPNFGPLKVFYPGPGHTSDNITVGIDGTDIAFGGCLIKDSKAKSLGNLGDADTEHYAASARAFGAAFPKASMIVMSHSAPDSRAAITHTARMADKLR

## Cc1ccc(-c2cccc(S(N)(=O)=O)c2-c2nnn[nH]2)cc1
[1]
  IC50: 3.7 nM
[2]
  IC50: 57 nM
Escherichia coli
  MITC95: 1.5 µM
[3]
  IC50: 64 nM
Klebsiella pneumoniae
  MITC95: 127 µM
Serratia marcescens
  MITC95: 14 µM

## NS(=O)(=O)c1c(CC2CCNCC2)ccc(-c2ccc(C3CCNCC3)cc2)c1-c1nn[nH]n1
[4]
  Ratio: 6
[1]
  IC50: 11 nM
[2]
  IC50: 5 nM
Escherichia coli
  MITC95: 2 µM
[5]
  IC50: 1230 nM
[6]
  Activity: Toxic
[7]
  Activity: Toxic
[8]
  Activity: Toxic
[3]
  IC50: 24 nM
[9]
  Activity: Toxic
[10]
  Cmax: 459 µM
[11]
  Activity: Toxic
Klebsiella pneumoniae
  MITC95: 2.3 µM
[12]
  Activity: Toxic
[13]
  Activity: Toxic
Serratia marcescens
  MITC95: 3.9 µM
Pseudomonas aeruginosa [14]
  MITC95: 4.4 µM
[15]
  Activity: Toxic
Pseudomonas aeruginosa [16]
  MITC95: 0.8 µM
[17]
  Activity: Toxic
[18]
  Activity: Toxic

## NS(=O)(=O)c1c(CC2CNC2)ccc(-c2ccc(C3CCNCC3)cc2)c1-c1nn[nH]n1
[19]
  Activity: Toxic
[20]
  Activity: Toxic
[21]
  Cmax: 45 µM

## NS(=O)(=O)c1cccc(-c2ccc(C3CCNCC3)cc2)c1-c1nn[nH]n1
[4]
  Ratio: 128
[2]
  IC50: 19 nM
Escherichia coli
  MITC95: 3 µM
[3]
  IC50: 34 nM
Klebsiella pneumoniae
  MITC95: 38 µM
Serratia marcescens
  MITC95: 9 µM
Pseudomonas aeruginosa [14]
  MITC95: 200 µM
Pseudomonas aeruginosa [16]
  MITC95: 1.56 µM

## NS(=O)(=O)c1c(C(F)(F)F)ccc(-c2ccc(C3CCNCC3)cc2)c1-c1nn[nH]n1
[4]
  Ratio: 64
[1]
  IC50: 0.9 nM
[2]
  IC50: 0.3 nM
Escherichia coli
  MITC95: 0.7 µM
[3]
  IC50: 1.2 nM
Klebsiella pneumoniae
  MITC95: 1.9 µM
Serratia marcescens
  MITC95: 0.2 µM
Pseudomonas aeruginosa [14]
  MITC95: 50 µM
Pseudomonas aeruginosa [16]
  MITC95: 0.78 µM

## NCCS(=O)(=O)c1ccc(-c2ccc(C3CCNCC3)cc2)c(-c2nn[nH]n2)c1S(N)(=O)=O
[4]
  Ratio: 2
[2]
  IC50: 0.2 nM
Escherichia coli
  MITC95: 1.56 µM
[3]
  IC50: 0.17 nM
Klebsiella pneumoniae
  MITC95: 3.13 µM
Serratia marcescens
  MITC95: 1.56 µM
Pseudomonas aeruginosa [16]
  MITC95: 0.78 µM

## NS(=O)(=O)c1c(SC2CCNCC2)ccc(-c2ccc(C3CCNCC3)cc2)c1-c1nnn[nH]1
[4]
  Ratio: 32
[2]
  IC50: 48.5 nM
Escherichia coli
  MITC95: 1.56 µM
[3]
  IC50: 35.7 nM
Klebsiella pneumoniae
  MITC95: 6.25 µM
Serratia marcescens
  MITC95: 3.13 µM
Pseudomonas aeruginosa [14]
  MITC95: 25 µM
Pseudomonas aeruginosa [16]
  MITC95: 0.78 µM
